Data from the CheMixHub ionic liquid set.

Experiment: xn = mol fraction of the nth substance listed
Conditions: 101 kPa

Cc1ncc(C[n+]2csc(CCO)c2C)c(N)n1.Cl.[Cl-] + CCCCCCCCCCCCOS(=O)(=O)[O-].[Na+] + O
electrical conductivity [S/m]
Conditions | 288.15 K | 298.15 K
x2 = 0, x1 = 1.8e-07 | 0.00237 | 0.00291
x2 = 0, x1 = 9e-07 | 0.0045 | 0.00489
x2 = 0, x1 = 1.8e-06 | 0.00578 | 0.00788
x2 = 7.35e-06, x1 = 1.8e-07 | 0.00538 | 0.00635
x2 = 7.35e-06, x1 = 9e-07 | 0.0077 | 0.00839
x2 = 7.35e-06, x1 = 1.8e-06 | 0.00928 | 0.0119
x2 = 1.463e-05, x1 = 1.8e-07 | 0.00837 | 0.0099
x2 = 1.463e-05, x1 = 9e-07 | 0.0109 | 0.0118
x2 = 1.463e-05, x1 = 1.8e-06 | 0.0127 | 0.0158
x2 = 2.18e-05, x1 = 1.8e-07 | 0.0112 | 0.0131
x2 = 2.18e-05, x1 = 9e-07 | 0.0139 | 0.0152
x2 = 2.18e-05, x1 = 1.8e-06 | 0.016 | 0.0196
x2 = 2.901e-05, x1 = 1.8e-07 | 0.0139 | 0.0163
x2 = 2.901e-05, x1 = 9e-07 | 0.0169 | 0.0186
x2 = 2.901e-05, x1 = 1.8e-06 | 0.0192 | 0.0233
x2 = 3.604e-05, x1 = 1.8e-07 | 0.0167 | 0.0196
x2 = 3.604e-05, x1 = 9e-07 | 0.0197 | 0.0219
x2 = 3.604e-05, x1 = 1.8e-06 | 0.0224 | 0.027
x2 = 4.307e-05, x1 = 1.8e-07 | 0.0194 | 0.0228
x2 = 4.307e-05, x1 = 9e-07 | 0.0225 | 0.0251
x2 = 4.307e-05, x1 = 1.8e-06 | 0.0255 | 0.0308
x2 = 4.991e-05, x1 = 1.8e-07 | 0.0221 | 0.026
x2 = 4.991e-05, x1 = 9e-07 | 0.0253 | 0.0282
x2 = 4.991e-05, x1 = 1.8e-06 | 0.0285 | 0.0347
x2 = 5.676e-05, x1 = 1.8e-07 | 0.0248 | 0.0292
x2 = 5.676e-05, x1 = 9e-07 | 0.0281 | 0.0312
x2 = 5.676e-05, x1 = 1.8e-06 | 0.0314 | 0.0384
x2 = 6.361e-05, x1 = 1.8e-07 | 0.0274 | 0.0323
x2 = 6.361e-05, x1 = 9e-07 | 0.0307 | 0.0342
x2 = 6.361e-05, x1 = 1.8e-06 | 0.0342 | 0.0421
x2 = 7.027e-05, x1 = 1.8e-07 | 0.0299 | 0.0354
x2 = 7.027e-05, x1 = 9e-07 | 0.0332 | 0.0372
x2 = 7.028e-05, x1 = 1.8e-06 | 0.037 | 0.0457
x2 = 7.694e-05, x1 = 1.8e-07 | 0.0324 | 0.0385
x2 = 7.694e-05, x1 = 9e-07 | 0.0357 | 0.0402
x2 = 7.694e-05, x1 = 1.8e-06 | 0.0397 | 0.0492
x2 = 8.361e-05, x1 = 1.8e-07 | 0.0349 | 0.0414
x2 = 8.361e-05, x1 = 9e-07 | 0.0382 | 0.0431
x2 = 8.361e-05, x1 = 1.8e-06 | 0.0425 | 0.0526
x2 = 9.009e-05, x1 = 1.8e-07 | 0.0374 | 0.0443
x2 = 9.009e-05, x1 = 9e-07 | 0.0407 | 0.046
x2 = 9.009e-05, x1 = 1.8e-06 | 0.0452 | 0.0557
x2 = 9.658e-05, x1 = 1.8e-07 | 0.0398 | 0.0471
x2 = 9.658e-05, x1 = 9e-07 | 0.0431 | 0.0489
x2 = 9.658e-05, x1 = 1.8e-06 | 0.0478 | 0.0587
x2 = 0.0001031, x1 = 1.8e-07 | 0.0422 | 0.0498
x2 = 0.0001031, x1 = 9e-07 | 0.0456 | 0.0518
x2 = 0.0001031, x1 = 1.8e-06 | 0.0503 | 0.0616
x2 = 0.0001094, x1 = 1.8e-07 | 0.0446 | 0.0524
x2 = 0.0001094, x1 = 9e-07 | 0.048 | 0.0545
x2 = 0.0001094, x1 = 1.8e-06 | 0.0522 | 0.0643
x2 = 0.0001157, x1 = 1.8e-07 | 0.0465 | 0.0549
x2 = 0.0001157, x1 = 9e-07 | 0.0502 | 0.0571
x2 = 0.0001157, x1 = 1.8e-06 | 0.0539 | 0.0668
x2 = 0.000122, x1 = 1.8e-07 | 0.0486 | 0.0574
x2 = 0.000122, x1 = 9e-07 | 0.0523 | 0.0595
x2 = 0.000122, x1 = 1.8e-06 | 0.0555 | 0.0691
x2 = 0.0001281, x1 = 1.8e-07 | 0.0508 | 0.0597
x2 = 0.0001281, x1 = 9e-07 | 0.0541 | 0.0615
x2 = 0.0001281, x1 = 1.8e-06 | 0.0571 | 0.0712
x2 = 0.0001342, x1 = 1.8e-07 | 0.0527 | 0.0619
x2 = 0.0001342, x1 = 9e-07 | 0.0558 | 0.0635
x2 = 0.0001342, x1 = 1.8e-06 | 0.0587 | 0.0732
x2 = 0.0001404, x1 = 1.8e-07 | 0.0545 | 0.0639
x2 = 0.0001404, x1 = 9e-07 | 0.0573 | 0.0653
x2 = 0.0001404, x1 = 1.8e-06 | 0.0601 | 0.0751
x2 = 0.0001465, x1 = 1.8e-07 | 0.0561 | 0.0656
x2 = 0.0001465, x1 = 9e-07 | 0.0587 | 0.0669
x2 = 0.0001465, x1 = 1.8e-06 | 0.0614 | 0.077
x2 = 0.0001524, x1 = 1.8e-07 | 0.0577 | 0.0672
x2 = 0.0001524, x1 = 9e-07 | 0.0599 | 0.0685
x2 = 0.0001524, x1 = 1.8e-06 | 0.0625 | 0.0789
x2 = 0.0001584, x1 = 1.8e-07 | 0.059 | 0.0687
x2 = 0.0001584, x1 = 9e-07 | 0.0611 | 0.0699
x2 = 0.0001584, x1 = 1.8e-06 | 0.0636 | 0.0807
x2 = 0.0001641, x1 = 1.8e-07 | 0.0602 | 0.07
x2 = 0.0001641, x1 = 9e-07 | 0.0622 | 0.0712
x2 = 0.0001641, x1 = 1.8e-06 | 0.0647 | 0.0825
x2 = 0.0001699, x1 = 1.8e-07 | 0.0613 | 0.0712
x2 = 0.0001699, x1 = 9e-07 | 0.0633 | 0.0724
x2 = 0.0001699, x1 = 1.8e-06 | 0.0657 | 0.0842
x2 = 0.0001757, x1 = 1.8e-07 | 0.0622 | 0.0724
x2 = 0.0001757, x1 = 9e-07 | 0.0643 | 0.0736
x2 = 0.0001757, x1 = 1.8e-06 | 0.0667 | 0.0857
x2 = 0.0001814, x1 = 1.8e-07 | 0.0632 | 0.0735
x2 = 0.0001814, x1 = 9e-07 | 0.0654 | 0.0748
x2 = 0.0001814, x1 = 1.8e-06 | 0.0677 | 0.0872
x2 = 0.000187, x1 = 1.8e-07 | 0.0641 | 0.0745
x2 = 0.000187, x1 = 9e-07 | 0.0664 | 0.076
x2 = 0.000187, x1 = 1.8e-06 | 0.0687 | 0.0885
x2 = 0.0001928, x1 = 1.8e-07 | 0.0649 | 0.0755
x2 = 0.0001928, x1 = 9e-07 | 0.0673 | 0.0771
x2 = 0.0001928, x1 = 1.8e-06 | 0.0697 | 0.0898
x2 = 0.0001982, x1 = 1.8e-07 | 0.0658 | 0.0765
x2 = 0.0001982, x1 = 9e-07 | 0.0683 | 0.0782
x2 = 0.0001982, x1 = 1.8e-06 | 0.0707 | 0.0911
x2 = 0.0002038, x1 = 1.8e-07 | 0.0666 | 0.0775
x2 = 0.0002038, x1 = 9e-07 | 0.0692 | 0.0794
x2 = 0.0002038, x1 = 1.8e-06 | 0.0716 | 0.0924
x2 = 0.0002092, x1 = 1.8e-07 | 0.0673 | 0.0784
x2 = 0.0002092, x1 = 9e-07 | 0.0702 | 0.0805
x2 = 0.0002092, x1 = 1.8e-06 | 0.0725 | 0.0937
x2 = 0.0002147, x1 = 1.8e-07 | 0.0681 | 0.0793
x2 = 0.0002148, x1 = 9e-07 | 0.0711 | 0.0816
x2 = 0.0002148, x1 = 1.8e-06 | 0.0734 | 0.0949
x2 = 0.00022, x1 = 1.8e-07 | 0.0689 | 0.0802
x2 = 0.00022, x1 = 9e-07 | 0.072 | 0.0826
x2 = 0.00022, x1 = 1.8e-06 | 0.0743 | 0.0961
x2 = 0.0002254, x1 = 1.8e-07 | 0.0696 | 0.081
x2 = 0.0002254, x1 = 9e-07 | 0.0729 | 0.0837
x2 = 0.0002254, x1 = 1.8e-06 | 0.0752 | 0.0973
x2 = 0.0002306, x1 = 1.8e-07 | 0.0703 | 0.0819
x2 = 0.0002306, x1 = 9e-07 | 0.0739 | 0.0848
x2 = 0.0002306, x1 = 1.8e-06 | 0.0761 | 0.0983
x2 = 0.0002358, x1 = 1.8e-07 | 0.071 | 0.0827
x2 = 0.0002358, x1 = 9e-07 | 0.0747 | 0.0858
x2 = 0.0002358, x1 = 1.8e-06 | 0.077 | 0.0993
x2 = 0.0002411, x1 = 1.8e-07 | 0.0717 | 0.0836
x2 = 0.0002411, x1 = 9e-07 | 0.0756 | 0.0869
x2 = 0.0002411, x1 = 1.8e-06 | 0.0778 | 0.1
